According to US20220220100A1 (SOLUTIA CANADA INC., priority 2019, published 2022):

Key:
[1] = Oxidation potential of ring-closed and ring-open isomers; assay type: physicochemical; conditions: no unit printed in table (V relative to Ag/AgCl)
From the text: In various embodiments, at a PSS, some of the chromophore will be in the ring-closed isomer, with a small, but non-zero portion of ring-open isomer. The oxidation potential of a ring-open isomer may be more anodic than the oxidation potential of a ring-closed isomer. Exposure to a potential that is too far beyond what is necessary to oxidize the ring-closed isomer may result in oxidation of the ring-open isomer, which may be irreversible and result in electrochemically-induced degradation of the chromophore.
Thus, in various embodiments, an anodic chromophore may have an oxidation potential of from about 0.4 V to 1.2 V for the ring-closed isomer and about 1.0 V to 2.5 V for the ring-open isomer relative to an Ag/AgCl reference electrode. In various embodiments, the oxidation potential for the ring-open isomer is about 250 mV more anodic than the oxidation potential for the ring-closed isomer. For example, the oxidation potential may be about 260 mV, about 280 mV, about 300 mV, about 320 mV, about 340 mV, about 360 mV, about 380 mV, about 400 mV, about 420 mV, about 440 mV, or about 460 mV more anodic than the oxidation potential for the ring-closed isomer.

[2] = Photostability: xenon arc weathering of chromophore solutions, LCMS analysis; assay type: physicochemical; conditions: for Ketone (%) / Minus-2HF (%) / Minus-HF (%) / Sulfone (%) / Chromophore Remaining (%): xenon arc, 82° C. bp; for Ketone (%) / Minus-2HF (%) / Minus-HF (%) / Sulfone (%): linearly interpolated to 0.5 MJ/m2 @ 340 nm; for Chromophore Remaining (%): linearly interpolated to 0.5 MJ/m2 @ 340 nm of exposure energy; for Photostability (in words): weathering experiments
From the text: Photostability (resistance to light-induced degradation) may be measured by the amount of time required for the compound, or a material comprising the compound, to degrade to a certain point under light exposure. The light exposure may be constant, or cyclic. The light transmittance or absorbance of the compound, or material comprising the compound, may be determined at both a light state and dark state prior to testing, to determine a contrast ratio. During testing, the contrast ratio may be monitored (periodically or continually), the compound or material may be determined to have failed when the contrast ratio falls outside, or below, a selected range, or when the contrast ratio decreases to a percentage of the original contrast ratio. Photostability may also be expressed with reference to a light source or with reference to a type of light.
Chromophore solutions in Rhodiasolv IRIS were prepared at 1 to 10 wt % loading. Solutions were prepared in a glovebox by charging the chromophore and Rhodiasolv IRIS to a trace-clean vial, and the solution was stirred on a hotplate at 90° C. for 2-24 hours. After cooling, the chromophore solution was injected into glass weathering cells and the fill and vent ports were sealed with a thin disc of Kalrez (FFKM Perfluorinated Elastomer) and secured with a clamp and set-screw. The weathering cells were filled and sealed inside the glove box.
Measurement of Photostability
A. Fabrication of cuvettes. Two holes of 0.8 mm diameter were drilled at opposite ends in a 75×50 mm piece of float glass using a diamond drill bit in a rotary tool. The drilled glass and a matching piece of undrilled glass were then cleaned using hot soapy water, rinsed with deionized water and acetone and then dried with compressed air. A 5 mm wide frame was cut from a sheet of 50 μm thickness EVAL EF-F using a laser engraver. The EVAL frame was placed around the perimeter of one sheet of glass and sandwiched by the second sheet of glass. The glass-EVAL-glass sandwich was secured with tape and heated under vacuum (10 mmHg) for 30 minutes at 170° C. in a vacuum bag. After cooling, a third piece of float glass was PVB laminated to the non-drilled side of the sealed glass cells using Trosifol UV Extra Protect B150 PVB (400 nm UV cut-off).
B. Xenon arc weathering protocol. Devices were exposed to simulated weathering conditions inside a Xe-3-HS xenon arc chamber, manufactured by Q-labs Inc. The samples were weathered according to the following table. The devices were exposed to these conditions continuously, with no dark or spray cycles included.
C. Analysis of weathered chromophore solutions by LCMS. The set-screws, metal clamps and Kalrez plugs were removed from the cuvette to expose the fill port. A 5 mL plastic syringe (NORM-JECT®) equipped with a tip (Precision Tips, 0.010″ RED) was inserted into one fill port and the chromophore solution was withdrawn from the cuvette. The chromophore solution was then injected into a 2 mL amber vial (part number 5182-0716, Agilent Technology) prefilled with 1.5 mL LC-MS grade acetonitrile (HiPerSolbe CHROMANORM Acetonitrile, VWR BDH Chemicals). An aliquot of the acetonitrile solution (2 μL) was injected into the LC-MS system (Agilent Infinity 1290 LC-MS system with diode array detector) through an autosampler mechanism. Species in the injected sample were separated through a reverse phase column (Zorbax SB-C18, 2.1×50 mm, 1.8 μm, operated at 40° C.), using a mixture of acetonitrile (mixed with 1% formic acid v/v ratio), methanol (HiPerSolbe CHROMANORM Methanol, VWR BDH Chemicals) and water (HiPerSolbe CHROMANORM Water, VWR BDH Chemicals) as mobile phase.

[3] = 3 wt %, interpolated to 0.5 MJ/m^2 of energy exposure at 340 nm
[4] = 1 wt %, interpolated to 0.5 MJ/m^2 of energy exposure at 340 nm
[5] = 10 wt %, interpolated to 0.5 MJ/m^2 of energy exposure at 340 nm

| Structure (SMILES) | RC [O] (oxidation potential of ring-closed isomer) [1] | RO [O] (oxidation potential of ring-open isomer) [1] | Ketone (%) ([2]; 3 wt % in Rhodiasolv IRIS) | Minus-2HF (%) ([2]; 3 wt % in Rhodiasolv IRIS) | Minus-HF (%) ([2]; 3 wt % in Rhodiasolv IRIS) | Sulfone (%) ([2]; 3 wt % in Rhodiasolv IRIS) | Chromophore Remaining (%) ([2]; 3 wt % in Rhodiasolv IRIS) | Ratio of chromophore remaining relative to S340 [2, 3] | Photostability (in words) [2] | Ketone (%) ([2]; 10 wt % in Rhodiasolv IRIS) | Minus-2HF (%) ([2]; 10 wt % in Rhodiasolv IRIS) | Minus-HF (%) ([2]; 10 wt % in Rhodiasolv IRIS) | Sulfone (%) ([2]; 10 wt % in Rhodiasolv IRIS) | Chromophore Remaining (%) ([2]; 10 wt % in Rhodiasolv IRIS) | Ratio of chromophore remaining relative to S340 [2, 5] | also measured |
| --- | --- | --- | --- | --- | --- | --- | --- | --- | --- | --- | --- | --- | --- | --- | --- | --- |
| COc1ccc2c(C3=C(c4cc(-c5ccc(C(C)(C)C)s5)sc4-c4ccc(C(C)(C)C)s4)C(F)(F)C(F)(F)C3(F)F)c(-c3ccc(C(C)(C)C)cc3)oc2c1 | 1 | 1.38 | 0.0% | 1.9% | 6.9% | 0.0% | 86.9% | 0.95 | more rapid degradation compared to S340 |  |  |  |  |  |  |  |
| COc1cc2oc(-c3ccc(C(C)(C)C)cc3)c(C3=C(c4cc(-c5cc6c(s5)C(C)(C)CCC6(C)C)sc4-c4cc5c(s4)C(C)(C)CCC5(C)C)C(F)(F)C(F)(F)C3(F)F)c2cc1OC | 0.91 | 1.29 |  |  |  |  |  |  | high photostability |  |  |  |  |  |  | Ketone (%) ([2]; 1 wt % in Rhodiasolv IRIS): 3.3%; Minus-2HF (%) ([2]; 1 wt % in Rhodiasolv IRIS): 0.0%; Minus-HF (%) ([2]; 1 wt % in Rhodiasolv IRIS): 1.3%; Sulfone (%) ([2]; 1 wt % in Rhodiasolv IRIS): 3.1%; Chromophore Remaining (%) ([2]; 1 wt % in Rhodiasolv IRIS): 92.3%; Ratio of chromophore remaining relative to S340 [2, 4]: 1.01; Sum of degradation product percentages relative to the sum of degradation product percentages for S340 [2, 4]: 0.87 |
| COCCCOc1cc2oc(-c3ccc(C(C)(C)C)cc3)c(C3=C(c4cc(-c5cc(C(C)(C)C)cs5)sc4-c4cc(C(C)(C)C)cs4)C(F)(F)C(F)(F)C3(F)F)c2cc1OCCCOC | 0.95 | 1.39 |  |  |  |  |  |  | high photostability | 0.0% | 0.0% | 0.0% | 0.1% | 98.6% | 1.08 | Formation of the Minus-HF degradation product (in words) [2]: prevents the Minus-HF product |
| CC(C)(C)c1ccc(-c2oc3cc(OCCN4C(=O)CCC4=O)c(OCCN4C(=O)CCC4=O)cc3c2C2=C(c3cc(-c4cc(C(C)(C)C)cs4)sc3-c3cc(C(C)(C)C)cs3)C(F)(F)C(F)(F)C2(F)F)cc1 | 1.05 | 1.42 |  |  |  |  |  |  | high photostability | 0.0% | 0.0% | 0.0% | 0.0% | 95.3% | 1.05 |  |
| COc1cc2oc(-c3ccc(C(C)(C)C)cc3)c(C3=C(c4cc(-c5ccc(C(C)(C)C)s5)sc4-c4ccc(C(C)(C)C)s4)C(F)(F)C(F)(F)C3(F)F)c2cc1OC [Chromophore S340, 2-(4-(tert-butyl)phenyl)-3-(2-(5,5″-di-tert-butyl-[2,2′:5′,2″-terthiophen]-3′-yl)-3,3,4,4,5,5-hexafluorocyclopent-1-en-1-yl)-5,6-dimethoxybenzofuran] | 0.95 | 1.35 | 0.0% | 1.0% | 3.5% | 0.0% | 91.1% | 1.00 | acceptable photostability |  |  |  |  |  |  |  |
| CC(C)(C)c1ccc(-c2oc3ccccc3c2C2=C(c3cc(-c4ccc(C(C)(C)C)s4)sc3-c3ccc(C(C)(C)C)s3)C(F)(F)C(F)(F)C2(F)F)cc1 [Chromophore S343, 2-(4-(tert-butyl)phenyl)-3-(2-(5,5″-di-tert-butyl-[2,2′:5′,2″-terthiophen]-3′-yl)-3,3,4,4,5,5-hexafluorocyclopent-1-en-1-yl)benzofuran] | 1.1 | 1.37 | 0.0% | 3.1% | 0.0% | 0.0% | 85.2% | 0.93 | more rapid degradation compared to S340 |  |  |  |  |  |  |  |
| COc1ccc2oc(-c3ccc(C(C)(C)C)cc3)c(C3=C(c4cc(-c5ccc(C(C)(C)C)s5)sc4-c4ccc(C(C)(C)C)s4)C(F)(F)C(F)(F)C3(F)F)c2c1 [Chromophore S344, 2-(4-(tert-butyl)phenyl)-3-(2-(5,5″-di-tert-butyl-[2,2′:5′,2″-terthiophen]-3′-yl)-3,3,4,4,5,5-hexafluorocyclopent-1-en-1-yl)-5-methoxybenzofuran] | 1.05 | 1.36 | 0.0% | 8.0% | 25.7% | 0.0% | 65.1% | 0.71 | more rapid degradation compared to S340 |  |  |  |  |  |  |  |
| COCCOc1cc2oc(-c3ccc(C(C)(C)C)cc3)c(C3=C(c4cc(-c5ccc(C(C)(C)C)s5)sc4-c4ccc(C(C)(C)C)s4)C(F)(F)C(F)(F)C3(F)F)c2cc1OCCOC [Chromophore S364, 2-(4-(tert-butyl)phenyl)-3-(2-(5,5″-di-tert-butyl-[2,2′:5′,2″-terthiophen]-3′-yl)-3,3,4,4,5,5-hexafluorocyclopent-1-en-1-yl)-5,6-bis(2-methoxyethoxy)benzofuran] | 0.93 | 1.32 |  |  |  |  |  |  | decreased stability | 0.6% | 2.7% | 14.9% | 0.0% | 80.4% | 0.88 |  |
| CC(=O)Oc1cc2oc(-c3ccc(C(C)(C)C)cc3)c(C3=C(c4cc(-c5ccc(C(C)(C)C)s5)sc4-c4ccc(C(C)(C)C)s4)C(F)(F)C(F)(F)C3(F)F)c2cc1OC(C)=O [Chromophore S367, 2-(4-(tert-butyl)phenyl)-3-(2-(5,5″-di-tert-butyl-[2,2′:5′,2″-terthiophen]-3′-yl)-3,3,4,4,5,5-hexafluorocyclopent-1-en-1-yl)benzofuran-5,6-diyl diacetate] | 1.12 | 1.38 |  |  |  |  |  |  | more rapid degradation compared to S340 | 1.1% | 0.0% | 56.0% | 0.0% | 40.8% | 0.45 |  |
